Data from ChEMBL document CHEMBL5303573, “Mapping human microbiome drug metabolism by gut bacteria and their genes” (Nature, 2019).

What was measured:
Format in all cases: ADME
Set-up in all cases: dose 2 uM
Conditions in all cases: 2 µM
[1] = target: T1, SGNH hydrolase-type esterase domain-containing protein (Phocaeicola dorei, UniProt B6W293); assay: (§1) The drug is tested on Bacteroides dorei strain: DSM17855 for biotransformation. The drug concentrations were measured before and after a 12-h incubation by liquid-chromatography-coupled mass spectrometry (LC–MS)
T1 sequence (B6W293 whole entry): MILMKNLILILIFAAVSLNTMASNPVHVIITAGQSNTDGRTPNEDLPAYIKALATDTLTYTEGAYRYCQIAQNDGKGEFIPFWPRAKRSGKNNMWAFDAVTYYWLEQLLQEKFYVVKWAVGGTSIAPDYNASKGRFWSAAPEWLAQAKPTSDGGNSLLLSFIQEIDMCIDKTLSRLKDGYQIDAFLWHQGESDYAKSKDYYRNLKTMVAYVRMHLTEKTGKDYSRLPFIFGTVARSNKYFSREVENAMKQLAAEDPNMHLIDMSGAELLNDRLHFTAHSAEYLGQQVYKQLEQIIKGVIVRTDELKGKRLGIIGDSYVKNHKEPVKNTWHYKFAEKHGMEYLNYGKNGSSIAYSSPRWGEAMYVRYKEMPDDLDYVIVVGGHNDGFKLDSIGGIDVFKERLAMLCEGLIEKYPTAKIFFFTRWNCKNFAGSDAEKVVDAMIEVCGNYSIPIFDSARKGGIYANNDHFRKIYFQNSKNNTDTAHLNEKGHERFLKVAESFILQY

[2] = target: T2, Esterase (Phocaeicola dorei, UniProt B6W2J6); assay: as §1
T2 sequence (B6W2J6 whole entry): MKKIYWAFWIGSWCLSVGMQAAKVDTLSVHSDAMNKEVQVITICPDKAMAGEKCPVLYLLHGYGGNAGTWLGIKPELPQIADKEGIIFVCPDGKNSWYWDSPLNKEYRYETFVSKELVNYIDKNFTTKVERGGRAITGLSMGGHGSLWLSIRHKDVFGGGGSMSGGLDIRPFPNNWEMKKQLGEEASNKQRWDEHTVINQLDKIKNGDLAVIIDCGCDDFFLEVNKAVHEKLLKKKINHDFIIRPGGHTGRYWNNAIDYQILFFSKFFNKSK

[3] = target: T3, SGNH hydrolase-type esterase domain-containing protein (Phocaeicola dorei, UniProt B6W1J1); assay: as §1
T3 sequence (B6W1J1 whole entry): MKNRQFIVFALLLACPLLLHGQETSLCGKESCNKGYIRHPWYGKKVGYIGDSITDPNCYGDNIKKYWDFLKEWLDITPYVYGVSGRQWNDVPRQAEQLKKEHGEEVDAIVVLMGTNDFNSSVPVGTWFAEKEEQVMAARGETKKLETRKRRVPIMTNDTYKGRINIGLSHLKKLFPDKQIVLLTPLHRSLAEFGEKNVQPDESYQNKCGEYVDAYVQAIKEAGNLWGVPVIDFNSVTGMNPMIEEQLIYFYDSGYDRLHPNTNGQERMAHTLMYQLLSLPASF

[4] = target: T4, Nitroreductase domain-containing protein (Phocaeicola dorei, UniProt B6VU18); assay: as §1
T4 sequence (B6VU18 whole entry): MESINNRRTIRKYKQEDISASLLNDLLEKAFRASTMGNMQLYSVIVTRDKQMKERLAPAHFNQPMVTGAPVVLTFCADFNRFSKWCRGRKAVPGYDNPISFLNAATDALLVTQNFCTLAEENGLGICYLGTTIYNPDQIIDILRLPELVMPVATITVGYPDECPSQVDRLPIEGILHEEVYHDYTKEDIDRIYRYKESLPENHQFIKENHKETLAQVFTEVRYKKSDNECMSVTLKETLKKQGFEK

[5] = target: T5, Flavodoxin (Collinsella aerofaciens, UniProt A4ED08); assay: (§2) The drug is tested on Collinsella aerofaciens strain: ATCC25986 for biotransformation. The drug concentrations were measured before and after a 12-h incubation by liquid-chromatography-coupled mass spectrometry (LC–MS)
T5 sequence (A4ED08 whole entry): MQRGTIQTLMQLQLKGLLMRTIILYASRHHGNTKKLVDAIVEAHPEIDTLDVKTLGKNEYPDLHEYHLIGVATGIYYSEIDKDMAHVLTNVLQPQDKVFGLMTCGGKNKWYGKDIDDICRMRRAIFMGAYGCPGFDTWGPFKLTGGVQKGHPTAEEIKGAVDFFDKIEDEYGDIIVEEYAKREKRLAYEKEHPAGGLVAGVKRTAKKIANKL

[6] = target: T6, GDSL-like protein (Collinsella aerofaciens, UniProt A4E8S4); assay: as §2
T6 sequence (A4E8S4 whole entry): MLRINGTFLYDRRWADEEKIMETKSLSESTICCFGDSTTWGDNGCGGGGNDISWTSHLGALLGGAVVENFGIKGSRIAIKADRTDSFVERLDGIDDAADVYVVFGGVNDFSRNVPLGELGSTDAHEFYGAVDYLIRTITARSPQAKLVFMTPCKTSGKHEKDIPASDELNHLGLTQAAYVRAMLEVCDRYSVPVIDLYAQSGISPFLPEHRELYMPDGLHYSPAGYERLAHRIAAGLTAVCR

[7] = target: T7, GDSL-like protein (Collinsella aerofaciens, UniProt A4E7D0); assay: as §2
T7 sequence (A4E7D0 whole entry): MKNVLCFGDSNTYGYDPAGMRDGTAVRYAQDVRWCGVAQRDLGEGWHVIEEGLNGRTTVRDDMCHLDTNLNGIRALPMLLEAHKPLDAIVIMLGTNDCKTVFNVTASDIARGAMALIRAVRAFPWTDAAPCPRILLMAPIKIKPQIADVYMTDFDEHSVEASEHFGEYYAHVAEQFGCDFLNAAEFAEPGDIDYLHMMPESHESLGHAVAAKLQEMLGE

[8] = target: T8, Pyridine nucleotide-disulfide oxidoreductase (Collinsella aerofaciens, UniProt A4EBM5); assay: as §2
T8 sequence (A4EBM5 whole entry): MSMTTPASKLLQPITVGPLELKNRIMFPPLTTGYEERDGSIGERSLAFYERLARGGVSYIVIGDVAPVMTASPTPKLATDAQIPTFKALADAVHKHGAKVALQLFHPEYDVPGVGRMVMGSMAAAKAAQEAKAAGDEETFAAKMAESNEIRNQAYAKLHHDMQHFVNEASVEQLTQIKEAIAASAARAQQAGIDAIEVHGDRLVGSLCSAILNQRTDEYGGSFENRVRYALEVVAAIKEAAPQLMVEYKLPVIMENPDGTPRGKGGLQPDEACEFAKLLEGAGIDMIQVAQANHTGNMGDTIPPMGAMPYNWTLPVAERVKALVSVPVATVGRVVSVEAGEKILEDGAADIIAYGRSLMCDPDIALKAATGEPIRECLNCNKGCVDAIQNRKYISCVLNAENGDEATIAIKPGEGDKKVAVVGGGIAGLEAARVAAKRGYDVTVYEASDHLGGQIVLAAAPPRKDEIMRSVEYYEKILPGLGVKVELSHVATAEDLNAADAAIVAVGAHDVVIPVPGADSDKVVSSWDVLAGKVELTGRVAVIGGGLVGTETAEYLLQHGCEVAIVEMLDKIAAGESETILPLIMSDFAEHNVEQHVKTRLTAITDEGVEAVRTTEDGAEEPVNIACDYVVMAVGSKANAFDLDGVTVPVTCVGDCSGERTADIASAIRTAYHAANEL

Measured: Bacterial Biotransformation

N#Cc1ccc2c(c1)N(CCCN1CCC(O)CC1)c1ccccc1S2 [PERICIAZINE]
Compound NOT metabolized: [1] | [2] | [3] | [4] | [5] | [6] | [7] | [8]

C[C@]12CCC(=O)C=C1[C@@H]1C[C@@H]1[C@H]1[C@@H]3[C@@H]4C[C@@H]4[C@@]4(CCC(=O)O4)[C@@]3(C)CC[C@@H]12 [DROSPIRENONE]
Compound NOT metabolized: [1] | [2] | [3] | [4] | [5] | [6] | [7] | [8]
